# Source: patent US6344452B1, “1,5-benzodiazepine derivatives” (Zeria Pharmaceuticals Co., Ltd., priority 1998, dated 2002)
# Columns and labels:
# [1] = tested on: pentagastrin-stimulated acid secretion; assay: Inhibition test on pentagastrin-stimulated acid secretion in rats; format: in vivo, rat; details: SD rats, acid output 1st to 4th hour after administration
# Protocol: <Inhibition Test on Pentagastrin-stimulated Acid Secretion in Rats>
# Male Sprague-Dawley (SD) strain rats were used. Under anesthesia with ethyl ether, operations were performed on each rat to ligate the gastric antrum and also to arrange an intraduodenal catheter and a gastric fistula tube. After completion of the operations, the rat was placed in a Ballmann cage, and pentagastrin was continuously injected at 15 μg/kg/hr through the caudal vein. Each test compound was formed into a suspension by using a 0.5% carboxymethylcellulose sodium solution (hereinafter called “the solvent”). Upon an elapsed timeof 1 hour from the initiation of the injection of pentagastrin, the solvent or the test compound was administered through the intraduodenal catheter. The acidity of sampled gastric juice was measured using an autotitrater, and a product of the acidity and the amount of the gastric juice was recorded as an acid output. […] [formula]
# CCK-B receptor = target: T1, CCK-B receptor (Cavia porcellus, UniProt H0VZC5); assay: CCK-B receptor binding test ([3H]CCK-B, guinea pig cerebral cortex); details: [3H]CCK-B 1.0 nM, guinea pig cerebral cortex membranes, 25° C., 2 hours; read-out: binding inhibition constant (Ki value)
# T1 construct: the homogenate was provided as a receptor sample; from tissue; host or cells: guinea pig cerebral cortex membrane homogenate
# T1 sequence (H0VZC5 1-426): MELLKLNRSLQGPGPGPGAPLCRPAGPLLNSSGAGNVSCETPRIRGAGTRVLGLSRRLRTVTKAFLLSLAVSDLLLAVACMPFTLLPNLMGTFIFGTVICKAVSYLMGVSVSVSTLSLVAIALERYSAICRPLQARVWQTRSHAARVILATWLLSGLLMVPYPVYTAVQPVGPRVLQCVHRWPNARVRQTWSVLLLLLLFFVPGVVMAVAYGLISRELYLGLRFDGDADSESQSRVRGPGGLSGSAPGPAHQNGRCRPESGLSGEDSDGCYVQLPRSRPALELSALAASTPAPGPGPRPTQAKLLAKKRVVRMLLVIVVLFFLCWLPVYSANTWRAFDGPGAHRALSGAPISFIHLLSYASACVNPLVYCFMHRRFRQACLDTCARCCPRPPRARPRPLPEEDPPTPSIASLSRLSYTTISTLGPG
# Protocol: <CCK-B Receptor Binding Test>
# From a male Hartley strain guinea pig, the cerebral cortex was removed. After the cerebral cortex was homogenized with 50 mM tris-HCl buffer (pH 7.4) in an amount 50 times as much as the weight of the cerebral cortex, the homogenate was centrifuged under 50,000 g for 10 minutes. With respect to the resulting pellet, addition of the same buffer in the same amount and centrifugation were repeated twice. […]
# As a binding experiment, a [^3H]CCK-B solution of a final concentration of 1.0 nM (50 μL) and the receptor sample (protein content: 800 μg/tube) (900 μL) were added to the solvent, the CCK-B solution of a final concentration of 1.0 μM or a test compound solution (50 μL), followed by a reaction at 25° C. for 2 hours. […] ACS-II scintillator was added to the filter and, after the filter was left over for 24 hours, the radioactivity concentration on the filter was measured by a liquid scintillation counter. A binding in the presence of CCK-B (1 μM) was recorded as a non-specific binding, while a value obtained by subtracting the non-specific binding from a full binding, which had been obtained using the solvent instead of CCK-B, was recorded as a specific binding. From the specific binding of [^3H]CCK-B, the binding inhibition constant (Ki value) of the compound was calculated.
# CCK-A receptor = target: T2, CCK-A receptor (Cavia porcellus, UniProt Q63931); assay: CCK-A receptor binding test ([3H]L-364,718, guinea pig pancreas); details: [3H]L-364,718 0.2 nM, guinea pig pancreas membranes, 25° C., 2 hours; read-out: binding inhibition constant (Ki value)
# T2 construct: The homogenate was provided as a receptor sample; from tissue; host or cells: guinea pig pancreas membrane homogenate
# T2 sequence (Q63931 1-430): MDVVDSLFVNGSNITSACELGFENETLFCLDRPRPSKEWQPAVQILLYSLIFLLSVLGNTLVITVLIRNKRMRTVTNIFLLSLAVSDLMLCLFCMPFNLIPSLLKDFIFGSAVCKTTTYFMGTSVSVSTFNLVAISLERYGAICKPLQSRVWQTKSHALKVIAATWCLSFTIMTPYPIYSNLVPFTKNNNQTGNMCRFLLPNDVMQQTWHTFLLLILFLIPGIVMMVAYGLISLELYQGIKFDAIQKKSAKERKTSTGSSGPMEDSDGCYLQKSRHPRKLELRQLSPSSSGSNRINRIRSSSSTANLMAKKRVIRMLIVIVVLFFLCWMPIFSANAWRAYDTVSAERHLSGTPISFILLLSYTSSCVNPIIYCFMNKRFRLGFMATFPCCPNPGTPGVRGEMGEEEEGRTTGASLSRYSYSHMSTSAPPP
# Protocol: <CCK-A Receptor Binding Test>
# From a male Hartley strain guinea pig, the pancreas was removed. The pancreas was homogenized with 10 mM PIPES buffer (pH 6.5, hereinafter called “the solvent”) in an amount 40 times as much as the weight of the pancreas. The solvent contained EGTA (1 mM), magnesium chloride (30 mM), bacitracin (0. 02%) , soybean trypsin inhibitor (0.02%), and sucrose (0.3 M). After filtered through gauze, the homogenate was centrifuged under 50,000 g for 10 minutes. To the resulting pellet, the solvent was added again in an amount as much as the pellet, followed by centrifugation. To the thus-obtained pellet the solvent was added in an amount 40 times as much as the pellet, and the pellet was homogenized. […]
# As a binding experiment, a solution (50 μL) of [^3H]L-364,718 (devazepide), said solution having a final concentration of 0.2 nM, and the receptor sample (protein content: 50 μg/tube) (900 μL) were added to the solvent, an L-364,718 solution of a final concentration of 1 μM or a test compound solution (50 μL), followed by a reaction at 25° C. for 2 hours. […] ACS-II scintillator was added to the filter and, after the filter was left over for 24 hours, the radioactivity concentration on the filter was measured by a liquid scintillation counter. […] From the specific binding of [^3H]L-364,718, the binding inhibition constant (Ki value) of the compound was calculated.
# [2] = tested on: pentagastrin-stimulated acid secretion; assay: Inhibition test on pentagastrin-stimulated acid secretion in beagles with Heidenhain pouch; format: in vivo, beagle; details: 1 mg/kg oral (gelatin capsules), acid output 1st to 4th hour after administration
# Protocol: <Inhibition Test on Pentagastrin-stimulated Acid Secretion in Beagles with Heidenhain Pouch>
# Male beagles with Heidenhain pouch formed beforehand were used. Pentagastrin was continuously and intravenously injected at 4 μg/kg/hr. Upon an elapsed time of 3 hours after the initiation of the continuous injection of pentagastrin, each test compound was filled in gelatin capsules and orally administered. The acidity of sampled gastric juice was measured using an autotitrater, and a product of the acidity and the amount of the gastric juice was recorded as an acid output. Supposing -that an acid output during 1 hour preceding the administration was 100%, acid output over 3 hours ranging from the 1st hour to the 4th hour after the administration of the test compound were converted into percentages (acid output percentages). Based on such acid output percentages, the acid output inhibition rate of each beagle was determined using the below-described formula. An average of such acid output inhibition rates was recorded as the acid inhibition rate of the compound. […] [formula]
melting point,Ki (CCK-B receptor) [nM],Ki (CCK-A receptor) [nM],Structure (SMILES),acid secretion inhibition ([1]; 0.1 mg/kg intraduodenal) [%],acid secretion inhibition ([1]; 0.3 mg/kg intraduodenal) [%],acid secretion inhibition [2] [%]
–,–,–,"CC(C)(C)C(=O)CN1C(=O)[C@H](NC(=O)Nc2cccc(C(C)(C)C(=O)O)c2)CN(C2CCCCC2)c2ccccc21 [Example 5, sodium (R)-2-[3-[3-(1-tert-butylcarbonylmethyl-2-oxo-5-cyclohexyl-1,3,4,5-tetrahydro-2H-1,5-benzodiazepin-3-yl)ureido]phenyl]-2-methylpropionate]",48.4,79.3,–
215 to 216 °C (dec.),–,–,"CC(C)(C)C(=O)CN1C(=O)C(NC(=O)Nc2cccc(C(C)(C)C(=O)O)c2)CN(C2CCCCC2)c2ccccc21 (racemic) [Example 1, (±)-2-[3-[3-(1-tert-butylcarbonylmethyl-2-oxo-5-cyclohexyl-1,3,4,5-tetrahydro-2H-1,5-benzodiazepin-3-yl)ureido]phenyl]-2-methylpropionic acid]",–,–,–
–,0.74,438,"CC(C)(C)C(=O)CN1C(=O)[C@H](NC(=O)Nc2cccc(C(C)(C)C(=O)O)c2)CN(C2CCCCC2)c2ccccc21 [Example 2, (R)-(−)-2-[3-[3-(1-tert-butylcarbonylmethyl-2-oxo-5-cyclohexyl-1,3,4,5-tetrahydro-2H-1,5-benzodiazepin-3-yl)ureido]phenyl]-2-methylpropionic acid]",–,72.7,77.9
